Assay results as given in patent US20250295646A1, “METHODS OF USE OF T-TYPE CALCIUM CHANNEL MODULATORS” (Praxis Precision Medicines, Inc., priority 2022, published 2025).

Test system: adult patients with essential tremor
Assay: Example 16: video-reviewed TETRAS performance subscale and upper limb score; for TETRAS Performance Subscale Total Score by Video Review, Change from Baseline, Mean (SD): test concentration or dose not given here; for TETRAS Performance Subscale Total Score by Video Review, Change from Baseline, Median: test concentration or dose not given here; for TETRAS Performance Subscale Total Score by Video Review, Mean (SD): test concentration or dose not given here; for TETRAS Performance Subscale Total Score by Video Review, Median: test concentration or dose not given here
Format: in vivo, human
From the text: Video-reviewed TETRAS Analyses Video reviewed TETRAS assessments were generally consistent with those conducted at the clinic. Video reviewed TETRAS performance subscale total scores are summarized for Part A, the open-label titration phase of Part B, and the randomized withdrawal phase of Part B in Table 42, Table 43, and Table 44.
Video reviewed upper limb score values were generally consistent with those conducted at the clinic and are summarized for Part A, the open-label titration phase of Part B, and the randomized withdrawal phase of Part B in Table 45, Table 46, and Table 47, respectively.

[1] = Day 1, 6 hours Post - dose, Part A (N = 7)
[2] = Day 1, 6 hours Post - dose, Part B Open-Label Titration Phase (N = 17)
[3] = Day 1, 6 hours Post - dose, Part B, Formula (I) arm (N = 6)
[4] = Day 7, Part B Open-Label Titration Phase (N = 17)
[5] = Day 7, Part B, Formula (I) arm (N = 6)
[6] = Day 21, Part B Open-Label Titration Phase (N = 17)

CC(C)(C)NC(=O)CN1CCC(CNC(=O)c2cc(F)cc(Cl)c2)CC1 [compound of formula (I), N-((1-(2-(tert-butylamino)-2-oxoethyl)piperidin-4-yl)methyl)-3-chloro-5-fluorobenzamide]
TETRAS Performance Subscale Total Score by Video Review, Change from Baseline, Mean (SD) [1]: 0.29 (1.753) | TETRAS Performance Subscale Total Score by Video Review, Change from Baseline, Median [1]: 0.50 | TETRAS Performance Subscale Total Score by Video Review, Mean (SD) [1]: 24.00 (5.148) | TETRAS Performance Subscale Total Score by Video Review, Median [1]: 23.00 | TETRAS Performance Subscale Total Score by Video Review, Percentage Change from Baseline in Tremor Amplitude, Mean (SD) [1]: 1.98 (11.724) % | TETRAS Performance Subscale Total Score by Video Review, Percentage Change from Baseline in Tremor Amplitude, Median [1]: 3.53% | TETRAS Upper Limb Score by Video Review, Change from Baseline, Mean (SD) [1]: 0.21 (0.859) | TETRAS Upper Limb Score by Video Review, Change from Baseline, Median [1]: 0.00 | TETRAS Upper Limb Score by Video Review, Mean (SD) [1]: 10.93 (2.440) | TETRAS Upper Limb Score by Video Review, Median [1]: 10.00 | TETRAS Upper Limb Score by Video Review, Percentage Change from Baseline in Tremor Amplitude, Mean (SD) [1]: 3.57 (14.794) % | TETRAS Upper Limb Score by Video Review, Percentage Change from Baseline in Tremor Amplitude, Median [1]: 0.00% | TETRAS Performance Subscale Total Score by Video Review, Change from Baseline, Mean (SD) [2]: −0.74 (2.544) | TETRAS Performance Subscale Total Score by Video Review, Change from Baseline, Median [2]: −0.50 | TETRAS Performance Subscale Total Score by Video Review, Mean (SD) [2]: 20.79 (6.715) | TETRAS Performance Subscale Total Score by Video Review, Median [2]: 20.50 | TETRAS Performance Subscale Total Score by Video Review, Percentage Change from Baseline in Tremor Amplitude, Mean (SD) [2]: −4.49 (15.951) % | TETRAS Performance Subscale Total Score by Video Review, Percentage Change from Baseline in Tremor Amplitude, Median [2]: −3.53% | TETRAS Upper Limb Score by Video Review, Change from Baseline, Mean (SD) [2]: −0.29 (1.238) | TETRAS Upper Limb Score by Video Review, Change from Baseline, Median [2]: 0.00 | TETRAS Upper Limb Score by Video Review, Mean (SD) [2]: 9.47 (2.809) | TETRAS Upper Limb Score by Video Review, Median [2]: 9.50 | TETRAS Upper Limb Score by Video Review, Percentage Change from Baseline in Tremor Amplitude, Mean (SD) [2]: −4.23 (19.775) % | TETRAS Upper Limb Score by Video Review, Percentage Change from Baseline in Tremor Amplitude, Median [2]: 0.00% | TETRAS Performance Subscale Total Score by Video Review, Change from Baseline, Mean (SD) [3]: −0.42 (2.973) | TETRAS Performance Subscale Total Score by Video Review, Change from Baseline, Median [3]: −0.50 | TETRAS Performance Subscale Total Score by Video Review, Mean (SD) [3]: 21.92 (4.398) | TETRAS Performance Subscale Total Score by Video Review, Median [3]: 21.75 | TETRAS Performance Subscale Total Score by Video Review, Percentage Change from Baseline in Tremor Amplitude, Mean (SD) [3]: −2.29 (18.383) % | TETRAS Performance Subscale Total Score by Video Review, Percentage Change from Baseline in Tremor Amplitude, Median [3]: −3.47% | TETRAS Upper Limb Score by Video Review, Change from Baseline, Mean (SD) [3]: 0.33 (1.125) | TETRAS Upper Limb Score by Video Review, Change from Baseline, Median [3]: 0.75 | TETRAS Upper Limb Score by Video Review, Mean (SD) [3]: 10.25 (1.666) | TETRAS Upper Limb Score by Video Review, Median [3]: 9.50 | TETRAS Upper Limb Score by Video Review, Percentage Change from Baseline in Tremor Amplitude, Mean (SD) [3]: 5.82 (19.104) % | TETRAS Upper Limb Score by Video Review, Percentage Change from Baseline in Tremor Amplitude, Median [3]: 13.30% | TETRAS Performance Subscale Total Score by Video Review, Change from Baseline, Mean (SD) (Day 7, Part A (N = 7)): −1.25 (3.094) | TETRAS Performance Subscale Total Score by Video Review, Change from Baseline, Median (Day 7, Part A (N = 7)): −1.25 | TETRAS Performance Subscale Total Score by Video Review, Mean (SD) (Day 7, Part A (N = 7)): 21.00 (2.449) | TETRAS Performance Subscale Total Score by Video Review, Median (Day 7, Part A (N = 7)): 21.75 | TETRAS Performance Subscale Total Score by Video Review, Percentage Change from Baseline in Tremor Amplitude, Mean (SD) (Day 7, Part A (N = 7)): −7.45 (19.377) % | TETRAS Performance Subscale Total Score by Video Review, Percentage Change from Baseline in Tremor Amplitude, Median (Day 7, Part A (N = 7)): −8.23% | TETRAS Upper Limb Score by Video Review, Change from Baseline, Mean (SD) (Day 7, Part A (N = 7)): −0.25 (1.332) | TETRAS Upper Limb Score by Video Review, Change from Baseline, Median (Day 7, Part A (N = 7)): 0.00 | TETRAS Upper Limb Score by Video Review, Mean (SD) (Day 7, Part A (N = 7)): 9.83 (0.816) | TETRAS Upper Limb Score by Video Review, Median (Day 7, Part A (N = 7)): 10.00 | TETRAS Upper Limb Score by Video Review, Percentage Change from Baseline in Tremor Amplitude, Mean (SD) (Day 7, Part A (N = 7)): −3.79 (22.054) % | TETRAS Upper Limb Score by Video Review, Percentage Change from Baseline in Tremor Amplitude, Median (Day 7, Part A (N = 7)): 0.00% | TETRAS Performance Subscale Total Score by Video Review, Change from Baseline, Mean (SD) [4]: −2.28 (5.019) | TETRAS Performance Subscale Total Score by Video Review, Change from Baseline, Median [4]: −3.50 | TETRAS Performance Subscale Total Score by Video Review, Mean (SD) [4]: 20.17 (6.595) | TETRAS Performance Subscale Total Score by Video Review, Median [4]: 20.50 | TETRAS Performance Subscale Total Score by Video Review, Percentage Change from Baseline in Tremor Amplitude, Mean (SD) [4]: −13.83 (27.204) % | TETRAS Performance Subscale Total Score by Video Review, Percentage Change from Baseline in Tremor Amplitude, Median [4]: −22.26% | TETRAS Upper Limb Score by Video Review, Change from Baseline, Mean (SD) [4]: −1.15 (1.916) | TETRAS Upper Limb Score by Video Review, Change from Baseline, Median [4]: −1.50 | TETRAS Upper Limb Score by Video Review, Mean (SD) [4]: 8.75 (2.880) | TETRAS Upper Limb Score by Video Review, Median [4]: 8.50 | TETRAS Upper Limb Score by Video Review, Percentage Change from Baseline in Tremor Amplitude, Mean (SD) [4]: −17.86 (27.226) % | TETRAS Upper Limb Score by Video Review, Percentage Change from Baseline in Tremor Amplitude, Median [4]: −25.01% | TETRAS Performance Subscale Total Score by Video Review, Change from Baseline, Mean (SD) [5]: −2.00 (2.291) | TETRAS Performance Subscale Total Score by Video Review, Change from Baseline, Median [5]: −1.50 | TETRAS Performance Subscale Total Score by Video Review, Mean (SD) [5]: 20.33 (2.754) | TETRAS Performance Subscale Total Score by Video Review, Median [5]: 20.50 | TETRAS Performance Subscale Total Score by Video Review, Percentage Change from Baseline in Tremor Amplitude, Mean (SD) [5]: −12.63 (13.986) % | TETRAS Performance Subscale Total Score by Video Review, Percentage Change from Baseline in Tremor Amplitude, Median [5]: −10.23% | TETRAS Upper Limb Score by Video Review, Change from Baseline, Mean (SD) [5]: −0.88 (1.031) | TETRAS Upper Limb Score by Video Review, Change from Baseline, Median [5]: −1.00 | TETRAS Upper Limb Score by Video Review, Mean (SD) [5]: 9.00 (0.913) | TETRAS Upper Limb Score by Video Review, Median [5]: 9.00 | TETRAS Upper Limb Score by Video Review, Percentage Change from Baseline in Tremor Amplitude, Mean (SD) [5]: −14.41 (17.112) % | TETRAS Upper Limb Score by Video Review, Percentage Change from Baseline in Tremor Amplitude, Median [5]: −17.46% | TETRAS Performance Subscale Total Score by Video Review, Change from Baseline, Mean (SD) (Day 14, Part A (N = 7)): −2.92 (2.654) | TETRAS Performance Subscale Total Score by Video Review, Change from Baseline, Median (Day 14, Part A (N = 7)): −3.00 | TETRAS Performance Subscale Total Score by Video Review, Mean (SD) (Day 14, Part A (N = 7)): 19.33 (2.380) | TETRAS Performance Subscale Total Score by Video Review, Median (Day 14, Part A (N = 7)): 19.00 | TETRAS Performance Subscale Total Score by Video Review, Percentage Change from Baseline in Tremor Amplitude, Mean (SD) (Day 14, Part A (N = 7)): −17.69 (15.649) % | TETRAS Performance Subscale Total Score by Video Review, Percentage Change from Baseline in Tremor Amplitude, Median (Day 14, Part A (N = 7)): −19.21% | TETRAS Upper Limb Score by Video Review, Change from Baseline, Mean (SD) (Day 14, Part A (N = 7)): −1.33 (1.080) | TETRAS Upper Limb Score by Video Review, Change from Baseline, Median (Day 14, Part A (N = 7)): −1.50 | TETRAS Upper Limb Score by Video Review, Mean (SD) (Day 14, Part A (N = 7)): 8.75 (1.294) | TETRAS Upper Limb Score by Video Review, Median (Day 14, Part A (N = 7)): 9.25 | TETRAS Upper Limb Score by Video Review, Percentage Change from Baseline in Tremor Amplitude, Mean (SD) (Day 14, Part A (N = 7)): −21.27 (17.102) % | TETRAS Upper Limb Score by Video Review, Percentage Change from Baseline in Tremor Amplitude, Median (Day 14, Part A (N = 7)): −24.67% | TETRAS Performance Subscale Total Score by Video Review, Change from Baseline, Mean (SD) (Day 21, Part A (N = 7)): −1.00 (3.146) | TETRAS Performance Subscale Total Score by Video Review, Change from Baseline, Median (Day 21, Part A (N = 7)): −0.75 | TETRAS Performance Subscale Total Score by Video Review, Mean (SD) (Day 21, Part A (N = 7)): 21.25 (2.734) | TETRAS Performance Subscale Total Score by Video Review, Median (Day 21, Part A (N = 7)): 21.75 | TETRAS Performance Subscale Total Score by Video Review, Percentage Change from Baseline in Tremor Amplitude, Mean (SD) (Day 21, Part A (N = 7)): −5.84 (20.134) % | TETRAS Performance Subscale Total Score by Video Review, Percentage Change from Baseline in Tremor Amplitude, Median (Day 21, Part A (N = 7)): −4.59% | TETRAS Upper Limb Score by Video Review, Change from Baseline, Mean (SD) (Day 21, Part A (N = 7)): −0.67 (1.602) | TETRAS Upper Limb Score by Video Review, Change from Baseline, Median (Day 21, Part A (N = 7)): −0.25 | TETRAS Upper Limb Score by Video Review, Mean (SD) (Day 21, Part A (N = 7)): 9.42 (1.320) | TETRAS Upper Limb Score by Video Review, Median (Day 21, Part A (N = 7)): 9.50 | TETRAS Upper Limb Score by Video Review, Percentage Change from Baseline in Tremor Amplitude, Mean (SD) (Day 21, Part A (N = 7)): −9.56 (25.141) % | TETRAS Upper Limb Score by Video Review, Percentage Change from Baseline in Tremor Amplitude, Median (Day 21, Part A (N = 7)): −4.16% | TETRAS Performance Subscale Total Score by Video Review, Change from Baseline, Mean (SD) [6]: −0.96 (3.122) | TETRAS Performance Subscale Total Score by Video Review, Change from Baseline, Median [6]: −1.00 | TETRAS Performance Subscale Total Score by Video Review, Mean (SD) [6]: 21.67 (5.809) | TETRAS Performance Subscale Total Score by Video Review, Median [6]: 21.25 | TETRAS Performance Subscale Total Score by Video Review, Percentage Change from Baseline in Tremor Amplitude, Mean (SD) [6]: −5.66 (18.983) % | TETRAS Performance Subscale Total Score by Video Review, Percentage Change from Baseline in Tremor Amplitude, Median [6]: −6.88% | TETRAS Upper Limb Score by Video Review, Change from Baseline, Mean (SD) [6]: −0.67 (1.628) | TETRAS Upper Limb Score by Video Review, Change from Baseline, Median [6]: −0.50
